From US20100215588A1, “THERAPEUTIC DELIVERY OF INHIBITORY NUCLEIC ACID MOLECULES TO THE RESPIRATORY SYSTEM” (priority 2007, published 2010)

Legend:
[1] = Qualitative distribution of REDD14Cy3.5 siRNA in lung and kidney (fluorescence analysis); type: in vivo, cynomolgus monkeys; conditions: after oronasal inhalation
Experimental: On Day 15 of the study, two of the available animals (101 and 102) were administered a target dose of 35 mg/kg of a mixture of I5NP and REDD14Cy3.5 (fluorescence-labelled) siRNA via an oronasal mask as a nebulized aerosol generated by the Aeroneb device. A 2.0 L/min dilution airflow was used. The total dose of siRNA administered was calculated, based on the bodyweights and measured respiratory minute volumes of the animals, and on the achieved output of the Aeroneb device using the formulation concentration of 40 mg/mL of siRNA. The administered dose was adjusted by changing the exposure times for the animals
At the time of necropsy following Treatment 2, the lungs, bronchi and trachea of animal 102 were removed from the animal. The lungs were perfused with 4% paraformaldehyde, introduced using a syringe, via the trachea and/or bronchus and stored in this fixative at ambient temperature for a period of approximately 21 hours. Following this, as much as possible of the original fixative fluid was withdrawn by syringe via the trachea/bronchus and replaced with 0.2% paraformaldehyde. The fixed lungs were analyzed for fluorescence distribution.
At the time of necropsy following Treatment 2, the right kidney of animal 102 was removed from the animal. The kidney was dissected into quarters by making one longitudinal and one transverse cut, each to pass through the hilus, and then immersed in 4% paraformaldehyde and refrigerated for approximately 21 hours. Following this, the fixing solution was changed to 0.2% paraformaldehyde and the kidney was analyzed for fluorescence distribution.
Following Treatment 2, lung and kidney samples from animal 102 were analyzed for distribution of fluorescence (from REDD14Cy3.5 siRNA). The results were considered to be qualitative.

[2] = I5NP siRNA concentration and non-compartmental pharmacokinetics in plasma after single oronasal inhalation (hybridisation assay); type: in vivo, cynomolgus monkeys; conditions: for tmax: Treatment 1 (I5NP only), single oronasal inhalation; for AUC0-inf / AUC0-tlast / Cmax / Extrapolation (AUC0-inf − AUC0-tlast)/AUC0-inf × 100 / kel / t1/2 / tlast: Treatment 1, single oronasal inhalation
Experimental: Male cynomolgus monkeys were administered single oronasal inhalation doses of a nebulised aerosol formulation of fluorescent-labelled REDD14Cy3.5 and/or I5NP siRNAs. Following dosing, the concentration of I5NP in plasma, the non-compartmental disposition kinetics of I5NP in plasma, the qualitative distribution of REDD14Cy3.5 in lungs and the semi-quantitative distribution of I5NP in lungs were determined.
Three separate dose treatments were administered to the animals as detailed below. The theoretical inhalation achieved doses of siRNA were calculated from the respiratory minute volume (measured during pre-treatment), the aerosol concentration of the test article (measured gravimetrically during pre-treatment calibration of the nebuliser), the treatment time, the total aerosol depostion fraction (assumed as 100%) and the animal bodyweights on the day before each dose administration.
On Day 1 of the study, four of the available monkeys ([…]) were administered a target dose of 35 mg/kg of I5NP siRNA via an oronasal mask as a nebulized aerosol generated by the Aeroneb device. A 2.0 L/min dilution airflow was used. The total dose administered was calculated, based on the bodyweights and measured respiratory minute volumes of the animals, and on the achieved output of the Aeroneb device using the formulation concentration of 40 mg/mL. The administered dose was adjusted by changing the exposure times for the animals. Animals received treatment sequentially, rather than in parallel, using the single calibrated test Aeroneb.
On Day 35 of the Study, the three remaining main study animals (103 to 105) were administered a target dose of 35 mg/kg of I5NP siRNA via an oronasal mask as a nebulized aerosol generated by the Aeroneb device. A 2.0 L/min dilution airflow was used. The total dose administered was calculated, based on the bodyweights and measured respiratory minute volumes of the animals, and on the achieved output of the Aeroneb device using the formulation concentration of 40 mg/mL. The administered dose was adjusted by changing the exposure times for the animals.
A blood sample (0.5 mL) was collected at pre-dose, and at 15 minutes, 30 minutes, 1, 2, 4, 6, 8 and 24 hours post-end of inhalation, from the left or right femoral vein of each animal that received the full dose (101, 102, 103 and 106). Blood was collected into tubes with K3EDTA as the anticoagulant and then placed on wet ice pending centrifugation.
A blood sample (0.5 mL) was collected at pre-dose and at 15 minutes post-end of inhalation from all animals (103, 104 and 105). A third blood sample was collected at 6 h (animal 103), 24 h (animal 104) or 72 h (animal 105) post-end of inhalation. Blood was collected, into K3EDTA tubes, from the left or right femoral vein of each animal (103 to 105), and placed on wet ice pending centrifugation.
Blood was kept on wet ice until it was centrifuged, at 4° C. and 2700 rpm for approximately 10 minutes, to separate plasma (within 1 hour of collection). Plasma samples were separated, transferred to appropriately labeled vials and placed on dry ice prior to storage at approximately −80° C.
Following Treatments 1 and 3, plasma samples were analyzed for I5NP siRNA concentration at PCS-MTL according to a validated hybridization method.
Non-compartmental disposition kinetics in plasma was performed on concentration data from individual animals following Treatment 1. The following parameters were estimated as applicable:
All pharmacokinetic parameters were estimated using WinNonlin version 3.2 computer software.

[3] = Treatment 1, 8 hours post-end of dose
[4] = plasma, Treatment 1, mean of 4 animals

Q: For “I5NP: exemplary p53 inhibiting siRNA; sense GAGAAUAUUUCACCCUUCA, antisense UGAAGGGUGAAAUAUUCUC (chemistry not given here)”, which “distribution in lung, I5NP (hybridization) and REDD14Cy3.5 (fluorescence) compared” value [1] is on record?
A: Its value is “little difference in the distribution of the two test articles in lung”.

Q: What about the “highest mean concentration in plasma” value ([2]; Treatment 1, 15 minutes post-end of dosing, mean of 4 animals) of the same substance?
A: Its value is 21.0 ± 5.01 ng/mL.

Q: And the mean plasma level [2, 3]?
A: The mean plasma level was 0.588 ± 0.561 ng/mL.

Q: And the “plasma level as % of the Cmax value” [2, 3]?
A: The value was “approximately 3%”.

Q: What about the plasma concentration ([2]; Treatment 1, 24 h post-end of dosing, animal 101) of the same substance?
A: Its plasma concentration is 0.205 ng/mL.

Q: What about the “plasma concentration (below limit of quantitation)” value ([2]; Treatment 1, after 8 h or 24 h post-end of dosing (at 24 h all animals other than 101)) of the same substance?
A: The value was < 0.10 ng/mL.

Q: And the “absorption into the systemic circulation from the inhaled dose” value ([2]; Treatment 1, oronasal inhalation)?
A: The value was “rapid”.

Q: And the mean plasma concentration ([2]; Treatment 3, 15 minutes post-end of dose)?
A: The mean plasma concentration was 40.3 ± 14.5 ng/mL.

Q: What about the plasma level ([2]; Treatment 3, 6 h post-end of dose, animal 103) of the same substance?
A: Its plasma level is 11.1 ng/mL.

Q: What about the plasma level ([2]; Treatment 3, 24 h post-end of dose, animal 104) of the same substance?
A: Its plasma level is 0.192 ng/mL.

Q: And the “plasma concentration (less than limit of quantitation)” value ([2]; Treatment 3, 72 hours post-end of dosing, animal 105)?
A: The value was < 0.10 ng/mL.

Q: And the tmax ([2]; plasma, animal 101)?
A: Its tmax is 0.5 h.

Q: What about the tmax ([2]; plasma, animal 102) of the same substance?
A: The tmax was 0.5 h.

Q: And the tmax ([2]; plasma, animal 103)?
A: The tmax was 0.42 h.

Q: And the tmax ([2]; plasma, animal 106)?
A: Its tmax is 0.42 h.

Q: And the AUC0-inf ([2]; plasma, animal 101)?
A: Its AUC0-inf is 72.0 ng·h/mL.

Q: What about the AUC0-tlast ([2]; plasma, animal 101) of the same substance?
A: The AUC0-tlast was 70.3 ng·h/mL.

Q: And the Cmax ([2]; plasma, animal 101)?
A: Its Cmax is 26.3 ng/mL.

Q: And the “Extrapolation (AUC0-inf − AUC0-tlast)/AUC0-inf × 100” value (“Extrapolation” below) ([2]; plasma, animal 101)?
A: Its value is 2.36%.

Q: What about the kel ([2]; plasma, animal 101) of the same substance?
A: Its kel is 0.121 h⁻¹.

Q: What about the t1/2 ([2]; plasma, animal 101) of the same substance?
A: The t1/2 was 5.74 h.

Q: And the tlast ([2]; plasma, animal 101)?
A: The tlast was 24.25 h.

Q: What about the AUC0-inf ([2]; plasma, animal 102) of the same substance?
A: The AUC0-inf was 27.3 ng·h/mL.

Q: What about the AUC0-tlast ([2]; plasma, animal 102) of the same substance?
A: Its AUC0-tlast is 27.1 ng·h/mL.

Q: And the Cmax ([2]; plasma, animal 102)?
A: Its Cmax is 18.0 ng/mL.

Q: What about the “Extrapolation” value ([2]; plasma, animal 102) of the same substance?
A: The value was 0.824%.

Q: What about the kel ([2]; plasma, animal 102) of the same substance?
A: The kel was 0.467 h⁻¹.

Q: What about the t1/2 ([2]; plasma, animal 102) of the same substance?
A: The t1/2 was 1.48 h.

Q: And the tlast ([2]; plasma, animal 102)?
A: Its tlast is 8.25 h.

Q: And the AUC0-inf ([2]; plasma, animal 103)?
A: Its AUC0-inf is 46.8 ng·h/mL.

Q: And the AUC0-tlast ([2]; plasma, animal 103)?
A: Its AUC0-tlast is 42.4 ng·h/mL.

Q: And the Cmax ([2]; plasma, animal 103)?
A: Its Cmax is 24.0 ng/mL.

Q: What about the “Extrapolation” value ([2]; plasma, animal 103) of the same substance?
A: Its value is 9.40%.

Q: And the kel ([2]; plasma, animal 103)?
A: The kel was 0.252 h⁻¹.

Q: What about the t1/2 ([2]; plasma, animal 103) of the same substance?
A: Its t1/2 is 2.75 h.

Q: And the tlast ([2]; plasma, animal 103)?
A: Its tlast is 8.17 h.

Q: And the AUC0-inf ([2]; plasma, animal 106)?
A: The AUC0-inf was 16.1 ng·h/mL.

Q: And the AUC0-tlast ([2]; plasma, animal 106)?
A: The AUC0-tlast was 15.8 ng·h/mL.

Q: And the Cmax ([2]; plasma, animal 106)?
A: Its Cmax is 15.6 ng/mL.

Q: And the “Extrapolation” value ([2]; plasma, animal 106)?
A: The value was 2.26%.

Q: And the kel ([2]; plasma, animal 106)?
A: Its kel is 0.277 h⁻¹.

Q: And the t1/2 ([2]; plasma, animal 106)?
A: The t1/2 was 2.50 h.

Q: And the tlast ([2]; plasma, animal 106)?
A: Its tlast is 8.17 h.

Q: What about the “mean AUC0-inf” value [2, 4] of the same substance?
A: Its value is 40.6 ± 24.5 ng·h/mL.

Q: And the “mean AUC0-tlast” value [2, 4]?
A: The value was 38.9 ± 23.6 ng·h/mL.

Q: What about the mean kel [2, 4] of the same substance?
A: The mean kel was 0.279 ± 0.143 h⁻¹.

Q: What about the “mean t1/2” value [2, 4] of the same substance?
A: Its value is 3.12 ± 1.83 h.
